Where “and” joins values, the source holds several entries; their conditions need not be identical. Equal values may be shown once.
Legend:
[1] = system: IOP elevation associated with topical dexamethasone; conditions: topical administration, rabbits; cited from earlier work
IOP of patients = experiment: Randomized dose study of anecortave acetate AJD 3, 15, 30 mg vs vehicle, Example 6; type: in vivo, human (patients)
Procedure: Eligible patients were randomized into four groups to receive AJD as follows: • Anecortave acetate vehicle, 0.5 mL (21 patients) • Anecortave acetate 3 mg (0.5 mL, 0.6% suspension) (22 patients) • Anecortave acetate 15 mg (0.5 mL, 3% suspension) (20 patients) • Anecortave acetate 30 mg (0.5 mL, 6% suspension) (22 patients).
The site of the AJD injection was 3-5 mm from the limbus, inferiorly (between 4 and 8 o'clock, FIG. 1), and the drug was injected slowly (30-90 sec) using a 30 gauge needle.

[2] = system: myocilin expression in trabecular meshwork cells; conditions: cultured trabecular meshwork cells; cited from earlier work
[3] = system: IOP of patients with glaucoma caused by intravitreal injections of glucocorticoids; experiment: Single administration of anecortave acetate in patients with glaucoma caused by intravitreal glucocorticoids, Example 3; type: in vivo, human (patients)
Description: All patients were on maximal tolerated medical therapy for glaucoma and continued on their pre-study medications for the duration of the study.
In this group of eight eyes, three of which had prior intraocular surgery, and all of which were on at least three different types of glaucoma medications (maximum 6 medications and a mean of 4.1 different drug classes) the IOP decrease was seen as early as one week (mean 11.4 mm Hg), and appeared to reach a maximum decrease at three weeks (mean 16.4 mm Hg). FIG. 3 illustrates the decrease in IOP observed in these patients for twenty months.

[4] = system: IOP of patients with primary open angle glaucoma; experiment: Single anterior juxtascleral depot (AJD) of anecortave acetate in glaucoma patients, Example 2; type: in vivo, human (patients); conditions: single ~24 mg AJD
Description: Methods: An investigator IND and IRB approval was obtained. All patients gave informed consent. […] Prior glaucoma medications were not changed throughout study. Results: Six subjects with glaucoma and IOP≧23 mmHg (POAG [4], PDS [1], PXF [1]) mean age 59+/−8 years. Mean C/D ratio 0.8+/−0.2. Prior glaucoma medications included prostaglandins, beta blockers and/or alpha agonists (four on 1, one on 3, and one on 4). Mean pretreatment IOP was 31.3+/−11.3 mmHg. […] Patients were followed for twelve (12) months. The IOP-lowering effects peaked at approximately one month. The duration of effectiveness of the anecortave acetate was at least twelve (12) months. […] Treatment with prior glaucoma medications was discontinued for two patients due to the surprising IOP-lowering effects of the juxtasclerally administered anecortave acetate. This new method of treatment obviates problems with eye drops and many issues with compliance. Clinically meaningful additional medium-term IOP reduction is possible with a single anterior juxtascleral depot injection of anecortave acetate, much more than presently obtained with any currently available adjunctive medications.

[5] = system: IOP of Dutch Belted rabbits having elevated IOP; experiment: Brinzolamide anterior sub-Tenon's or topical administration in rabbits with elevated IOP, Example 4; type: in vivo; conditions: for mean percent IOP change from baseline compared to BSS control: over 7 days
Procedure: Eyes of Dutch Belted rabbits having elevated IOP were injected in the anterior segment with a carbonic anhydrase inhibitor.
Methods: Baseline IOP was measured daily for 5 days and averaged. Seven rabbits received one anterior sub-Tenon's capsule administration of 800 μl of a non-optimized 1% ophthalmic suspension of brinzolamide (AZOPT®). Seven rabbits received a 1% ophthalmic suspension of brinzolamide (AZOPT®) delivered topically once per day for seven days. Seven rabbits received one anterior sub-Tenon's administration of 800 μl of BSS®. IOP was monitored daily at 2 hours after topical drops were administered, for seven days, and weekly thereafter until IOP measurements remained the same as baseline for two measurements. […] Mean pretreatment IOP was 27.41 mm Hg. Mean change in IOP for this group was +0.18 mm Hg. Rabbits receiving either daily topical administration or subtenon's injection of brinzolamide experienced sustained lowering of IOP. For the topical administration group mean pretreatment IOP was 28.37 mm Hg. Mean change in IOP for this group was −2.48 mm Hg. […] For the group receiving one anterior subtenon's administration of a 1% brinzolamide ophthalmic suspension the mean pretreatment IOP was 27.44 mm Hg. Mean change in IOP for this group was −1.85 mm Hg. […] (See FIG. 4). […] Longer duration of action of the brinzolamide suspension from the subtenon's capsule could be achieved using higher concentration suspensions (e.g. 5% or 10%) or via encapsulation in sustained release dose forms such as microspheres.

IOP = conditions: intravitreal injection (Singh et al. 2004); cited from earlier work
[6] = mean pretreatment IOP 31.3+/-11.3 mmHg

CC(=O)OCC(=O)[C@@]1(O)CC[C@H]2[C@@H]3CCC4=CC(=O)CC[C@]4(C)C3=CC[C@@]21C [anecortave acetate, 4, 9(11)-pregnadien-17∝,21-diol-3,20-dione-21-acetate]
effect on IOP elevation associated with topical dexamethasone [1]: decreases the IOP elevation
patients who maintained an IOP of ≦21 mm Hg for 3 months (IOP of patients; 3 mg group (22 patients)): 7 patients
patients who maintained an IOP of ≦21 mm Hg for 3 months (IOP of patients; 15 mg group (20 patients)): 6 patients
patients who maintained an IOP of ≦21 mm Hg for 3 months (IOP of patients; 30 mg group (22 patients)): 11 patients
duration of IOP reductions after a single administration (IOP of patients; p<0.05 for all concentrations relative to vehicle at month 3, ANOVA): ≥ 3 months
effect on dexamethasone induced myocilin expression [2]: inhibition
IOP, individual eyes, 1 week ([3]; 1 week after single ~24 mg, baselines 34-57): 30 mm Hg (2×) and 34 mm Hg (2×) and 24 mm Hg (2×) and 23 mm Hg
Mean IOP, 1 week ([3]; 1 week, mean baseline 40.125): 28.43 mm Hg
IOP, individual eyes, 2 mon ([3]; 2 mon after single ~24 mg): 30 mm Hg and 24 mm Hg and 16 mm Hg and 19 mm Hg and 23 mm Hg
Mean IOP, 2 mon ([3]; 2 mon, mean baseline 40.125): 22 mm Hg
IOP, individual eyes, 2 weeks ([3]; 2 weeks after single ~24 mg, baselines 34-57): 28 mm Hg (2×) and 32 mm Hg and 19 mm Hg (2×) and 23 mm Hg and 35 mm Hg
Mean IOP, 2 weeks ([3]; 2 weeks, mean baseline 40.125): 24.8 mm Hg
IOP, individual eyes, 3 mon ([3]; 3 mon after single ~24 mg): 32 mm Hg and 18 mm Hg (2×) and 21 mm Hg and 19 mm Hg
Mean IOP, 3 mon ([3]; 3 mon, mean baseline 40.125): 19.3 mm Hg
IOP, individual eyes, 3 weeks ([3]; 3 weeks after single ~24 mg): 30 mm Hg and 17 mm Hg and 19 mm Hg (2×) and 37 mm Hg
Mean IOP, 3 weeks ([3]; 3 weeks, mean baseline 40.125): 24.4 mm Hg
IOP, individual eyes, 4 mon ([3]; 4 mon after single ~24 mg): 17 mm Hg and 16 mm Hg and 23 mm Hg and 21 mm Hg
Mean IOP, 4 mon ([3]; 4 mon, mean baseline 40.125): 20 mm Hg
IOP, individual eyes, 4 weeks ([3]; 4 weeks after single ~24 mg): 30 mm Hg (2×) and 28 mm Hg and 31 mm Hg and 14 mm Hg and 21 mm Hg and 19 mm Hg and 36 mm Hg
Mean IOP, 4 weeks ([3]; 4 weeks, mean baseline 40.125): 26.1 mm Hg
IOP, individual eyes, 5 mon ([3]; 5 mon after single ~24 mg): 15 mm Hg and 17 mm Hg and 21 mm Hg and 22 mm Hg
Mean IOP, 5 mon ([3]; 5 mon, mean baseline 40.125): 20 mm Hg
IOP, individual eyes, 6 mon ([3]; 6 mon after single ~24 mg): 19 mm Hg (3×) and 15 mm Hg
Mean IOP, 6 mon ([3]; 6 mon, mean baseline 40.125): 17.6 mm Hg
IOP, individual eyes, 6.2 mon ([3]; 6.2 mon after single ~24 mg): 26 mm Hg
IOP, individual eyes, 6.5 mon ([3]; 6.5 mon after single ~24 mg): 38 mm Hg
IOP, individual eyes, 7 mon ([3]; 7 mon after single ~24 mg): 17 mm Hg and 18 mm Hg (2×)
Mean IOP, 7 mon ([3]; 7 mon, mean baseline 40.125): 17.6 mm Hg
Mean IOP, 8 mon ([3]; 8 mon): 26.5 mm Hg
IOP, individual eyes, 8 mon ([3]; 8 mon after single ~24 mg): 31 mm Hg and 22 mm Hg
Mean IOP, 9 mon ([3]; 9 mon): 17.3 mm Hg
IOP, individual eyes, 9 mon ([3]; 9 mon after single ~24 mg): 15 mm Hg and 19 mm Hg and 18 mm Hg
Mean IOP, 12 mon ([3]; 12 mon): 19.6 mm Hg
IOP, individual eyes, 12 mon ([3]; 12 mon after single ~24 mg): 15 mm Hg and 22 mm Hg (2×)
Mean IOP, 13 mon ([3]; 13 mon): 19.6 mm Hg
IOP, individual eyes, 13 mon ([3]; 13 mon after single ~24 mg): 18 mm Hg and 22 mm Hg and 19 mm Hg
Mean IOP, 14 mon ([3]; 14 mon): 25.5 mm Hg
IOP, individual eyes, 14 mon ([3]; 14 mon after single ~24 mg): 25 mm Hg and 26 mm Hg
Mean IOP, 15 mon ([3]; 15 mon): 24 mm Hg
IOP, individual eyes, 15 mon ([3]; 15 mon after single ~24 mg): 26 mm Hg and 22 mm Hg
Mean IOP, 17 mon ([3]; 17 mon): 18.5 mm Hg
IOP, individual eyes, 17 mon ([3]; 17 mon after single ~24 mg): 19 mm Hg and 18 mm Hg
Mean IOP, 18 mon ([3]; 18 mon): 18 mm Hg
IOP, individual eyes, 18 mon ([3]; 18 mon after single ~24 mg): 19 mm Hg and 17 mm Hg
IOP, individual eyes, 20 mon ([3]; 20 mon after single ~24 mg): 16 mm Hg
IOP decrease in all eyes ([3]; eight eyes, single ~24 mg): All eyes had marked IOP decrease
mean IOP decrease at one week ([3]; eight eyes, single ~24 mg): 11.4 mm Hg
mean IOP decrease at three weeks (maximum decrease) ([3]; eight eyes, single ~24 mg): 16.4 mm Hg
IOP decrease in one eye at 2 months ([3]; eye that needed filtration surgery, resultant IOP 30 mm Hg): 45%
time for which recurrence of elevated IOP was prevented ([3]; remaining five eyes, IOP elevation due to triamcinolone reversed): up to 12 months
adverse events ([3]; single ~24 mg): without adverse events
duration of IOP reductions ([3]; single ~24 mg): at least 6 months
patients avoiding glaucoma filtration surgery ([3]; single ~24 mg): 75%
mean IOP decrease at 3 months (percent) [4]: 38.5%+/−21%
time at which IOP-lowering effects peaked [4]: approximately one
clinically significant adverse events ([4]; followed 12 months): No clinically significant adverse events occurred
duration of effectiveness ([4]; followed 12 months): ≥ 12 months
patients with >25% IOP decrease at 3 months ([4]; prior glaucoma medications unchanged, six subjects, IOP>=23 mmHg): Five of six
mean IOP at 3 months [4, 6]: 16.4+/−6 mm Hg
mean IOP decrease at 3 months [4, 6]: 10.8+/−7.0 mmHg
patients whose prior glaucoma medications were discontinued due to IOP-lowering effect ([4]; six subjects): two

CCN[C@H]1CN(CCCOC)S(=O)(=O)c2sc(S(N)(=O)=O)cc21 [brinzolamide]
maximum IOP lowering from baseline ([5]; 1% suspension topically once per day for seven days): 11.1%
Mean change in IOP ([5]; 1% suspension topically once per day for seven days, mean pretreatment IOP 28.37 mm Hg): −2.48 mm Hg
time of peak levels of IOP change ([5]; both topical and subtenon's groups): ≤ 3 days
maximum percent IOP lowering ([5]; one anterior sub-Tenon's administration of 800 μl 1% suspension): 15.9%
Mean change in IOP ([5]; one anterior sub-Tenon's administration of 800 μl 1% suspension, mean pretreatment IOP 27.44 mm Hg): −1.85 mm Hg
mean percent IOP change from baseline compared to BSS control ([5]; subtenon's injection group): statistically lower at all points
mean percent IOP change from baseline compared to BSS control ([5]; topical administration group): statistically lower at all points

CC1(C)O[C@@H]2C[C@H]3[C@@H]4CCC5=CC(=O)C=C[C@]5(C)[C@@]4(F)[C@@H](O)C[C@]3(C)[C@]2(C(=O)CO)O1 [triamcinolone, triamcinolone acetonide]
IOP reached (IOP): ~60 mm Hg
earliest onset of IOP elevation (IOP): 4 days
